Reference: US11300570B2, “Therapeutic and diagnostic methods for cancer” (Genentech, Inc., priority 2016, dated 2022)

System: locally advanced or metastatic NSCLC (PD-L1-selected patients)
Assay: BIRCH and FIR Phase II single-arm trials of atezolizumab monotherapy in PD-L1-selected NSCLC, efficacy by tTMB
Type: in vivo, human
Settings: for Median OS / Median PFS: 1L BIRCH/FIR; for ORR / Odds Ratio for Response / OS HR (95% CI) / PFS HR (95% CI): BIRCH and FIR 2L+; for Odds Ratio for Response / OS HR (95% CI) / PFS HR (95% CI): TMB-high vs TMB-low; for OS HR (95% CI) / PFS HR (95% CI): unadjusted, unstratified
Experimental: The correlation between the level of somatic mutations detected in a tumor tissue sample (e.g., mutation load, also referred to as tissue tumor mutational burden (tTMB)) and PD-L1 expression and their independent contribution to treatment with PD-L1 axis binding antagonists in non-small cell lung cancer (NSCLC) tumors was evaluated.
Pre-treatment tumor specimens from 465 patients with 2 L+ NSCLC who were enrolled in one of the three Phase II clinical trials (BIRCH, FIR, and POPLAR; Table 4 and 5), in which atezolizumab was administered as a monotherapy, were evaluated for tissue tumor mutational burden (tTMB). Tumor specimens from 1 L NSCLC patients were also evaluated in the BIRCH and FIR studies.
The efficacy analyses of the BIRCH population excluded these two untreated patients. Patients were eligible for enrollment in the BIRCH study if they had locally advanced or metastatic (e.g., stage IIIB, stage IV, or recurrent) NSCLC; a PD-L1-positive tumor status determined by an immunohistochemistry (IHC) assay based on PD-L1 expression in tumor infiltrating immune cells (IC) and/or tumor cells (TC); measurable disease, as defined by RECIST v1.1; and an Eastern Cooperative Oncology Group (ECOG) performance status of 0 or 1. Patients received atezolizumab at a dose of 1200 mg intravenously every three weeks for as long as patients were experiencing clinical benefit, i.e., in the absence of unacceptable toxicity or symptomatic deterioration attributed to disease progression.
The FIR (Clinical Trial ID No.: NCT01846416) patient population evaluated for tTMB consisted of 33 patients. Patients were eligible for enrollment in the FIR study if they had stage IIIB (e.g., not eligible for treatment by definitive chemoradiotherapy), stage IV, or recurrent NSCLC; a PD-L1-positive status as determined by an IHC assay; an ECOG performance status of 0 or 1; a life expectancy 12 weeks; measurable disease, as defined by RECIST v1.1; and adequate hematologic and end organ function. Patients received an intravenous dose of 1200 mg atezolizumab on Day 1 of each 21-day cycle until disease progression.
Data from the single-arm, PD-L1-selected trials BIRCH and FIR were combined and analyzed to examine the association between tTMB and clinical outcomes among PD-L1-selected patients. Data from the randomized, PD-L1-unselected trial, POPLAR, were analyzed separately and treatment effects between the atezolizumab- and docetaxel-treatment arms were compared.
To identify somatic mutations, tumor samples (e.g., archival tumor samples) were processed as described in Frampton et al. Nat. Biotechnol. 31:1023-31, 2013. Sequencing libraries were constructed to sequence and analyze samples. In addition to standard mutation processing, a mutation load estimation algorithm was applied that, based on the number of somatic mutations and/or rearrangements detected in Table 1 or Table 2, respectively, extrapolates to the exome or the genome as a whole. For purposes of mutation load estimation, all coding short variant alterations, base substitutions, and indels detected in the genes listed in Table 1 and Table 2 were counted. Further, all coding alterations (base substitutions and indels), including synonymous alterations, with the exception of known oncogenic driver mutations, in the genes listed in Table 1 and Table 2 were counted. […]

[1] = BEP (evaluable for TMB) (n = 102)

## atezolizumab
[1]
  Median OS: 20.1 months
  Median PFS: 7.0 months
ITT (n = 173)
  Median OS: 20.1 months
  Median PFS: 6.9 months
tTMB score <9 mut/Mb (n = 45)
  Median PFS: 4 months
tTMB score <16 mut/Mb (n = 85)
  Median OS: 20.1 months
  Median PFS: 6 months
tTMB score ≥9 mut/Mb (n = 57)
  Median OS: 20.1 months
  Median PFS: 8.3 months
tTMB score ≥16 mut/Mb (n = 17)
  Median PFS: 11.1 months
TMB-high (at or above 25% tTMB quantile cutoff)
  ORR: 22%
TMB-high (at or above 50% (median) tTMB cutoff)
  ORR: 25%
TMB-high (at or above 75% tTMB quantile cutoff)
  ORR: 29%
25% tTMB cutoff
  Odds Ratio for Response: 2.14
  OS HR (95% CI): 0.92 (0.64, 1.30)
  PFS HR (95% CI): 0.79 (0.60, 1.00)
50% (median) tTMB cutoff
  Odds Ratio for Response: 2.11
  OS HR (95% CI): 0.87 (0.65, 1.16)
  PFS HR (95% CI): 0.64 (0.50, 0.80)
75% tTMB cutoff
  Odds Ratio for Response: 2.20
  OS HR (95% CI): 0.70 (0.49, 1.00)
  PFS HR (95% CI): 0.5 (0.38, 0.67)
TMB-low (below 25% tTMB quantile cutoff)
  ORR: 11%
TMB-low (below 50% (median) tTMB cutoff)
  ORR: 14%
TMB-low (below 75% tTMB quantile cutoff)
  ORR: 16%
PD-L1-selected 2L+ patients with NSCLC, BIRCH and FIR
  association of tissue TMB with efficacy: associated with improved efficacy
All lines evaluated (1L and 2L+) in FIR and BIRCH
  association of tTMB with efficacy: associated with improved efficacy
